The structures appear in SMILES notation. pIC50: −log10 of the molar value. Where “and” joins values, the source holds several entries; their conditions need not be identical. Identical values can stand only once.

The subject of this assay is CPSF3 mutant T. cruzi intracellular amastigotes. Kind of assay: Intracellular amastigote assay with CPSF3 Asn to His mutant T. cruzi. It is filed as cell-based, Trypanosoma cruzi. Particulars: for % of maximum: Fig 5.d, CPSF3-mutant. The protocol:
The in vitro anti-T. cruzi amastiogote activity assay was performed and optimized based on the protocol described previously. The change in tdTomato fluorescence intensity was determined as a measurement of growth over 72 hours of culture. For assaying drug effects on extracellular amastigotes, trypomastigotes were collected from infected Vero cell cultures and converted in acidic media as previously described. Amastigotes (50,000/well) were incubated with 2-fold serial dilutions of compounds for 48 hours. The ATP production was used as an indication of growth in this case, and was measured by ATPlite Luminescence ATP Detection Assay System (PerkinElmer). Both fluorescence and luminescence were read using a BioTek Synergy Hybrid Multi-Mode reader equipped with the software Gene5 v 2.0 (BioTek). The dose-response curve was generated by […] analysis with GraphPad Prism v9.4.0 (GraphPad Software).
To generate CPSF3 mutant, a RNP c omplex was transfected into Brazil tdTomato strain epimastigotes to target the CPSF3 gene (TcBrA4_0124800), together with a repair template that contained the mutation of Asn^231 to His[21]. The sgRNA targeted the ‘[…]’ site. […] The ultimate resistant parasites were validated to have acquired the Asn^231His mutation in CPSF3 via sequencing.

On to `Cc1c(C(=O)N[C@H](C(=O)OCC2CCOCC2)C(C)C)ccc2c1B(O)OC2` [AN15368], for which the “% of maximum” value is, setting by setting: (0.10) 3% and 1%; (0.40) -6%; (0.70) 2% and -5%; (1.00) -6% and -2%; (1.30) -4% and -2% and 5%; (-0.51) 97% and 106% and 96%. Besides, the “% of maximum” value (-0.81) is 96% and 123% and 105%; the “% of maximum” value (-1.11) was 92% and 97% and 122%. The pIC50 (Trypanosoma cruzi, read-out: CPSF3 mutant IC50) was 6.30.

For the origin of these results see PMC9519446, “Discovery of an Orally Active Benzoxaborole Prodrug Effective in the Treatment of Chagas Disease in Non-human Primates” (Nature microbiology, 2022).
